Measured values: ChEMBL document CHEMBL5241058, “Pyrazole-based analogs as potential antibacterial agents against methicillin-resistance staphylococcus aureus (MRSA) and its SAR elucidation” (Eur J Med Chem, 2021)
Converted amounts (≈) assume the structure as drawn.

Columns and labels:
Format in all cases: functional
Staphylococcus aureus [1] = test: Antimicrobial activity against Methicillin-resistant Staphylococcus aureus assessed as bacterial growth inhibition incubated for 24 to 48 hrs by microdilution method; conditions: time 24-48 hrs
Staphylococcus aureus [2] = test: Antimicrobial activity against Methicillin-resistant Staphylococcus aureus ATCC 3167 assessed as bacterial growth inhibition
Staphylococcus aureus [3] = test: Antibiofilm activity against Methicillin-resistant Staphylococcus aureus USA 300 relative to control
Pseudomonas aeruginosa = test: Antimicrobial activity against Pseudomonas aeruginosa ATCC 27853 assessed as bacterial growth inhibition incubated for 18 hrs by microdilution method
Escherichia coli = test: Antimicrobial activity against Escherichia coli ATCC 8739 assessed as bacterial growth inhibition incubated for 18 hrs by microdilution method
Klebsiella pneumoniae = test: Antimicrobial activity against Klebsiella pneumoniae ATCC 314588 assessed as bacterial growth inhibition incubated for 18 hrs by microdilution method
[4] = tested on: Salmonella enterica subsp. enterica; test: Antimicrobial activity against Salmonella typhimurium […] assessed as bacterial growth inhibition incubated for 18 hrs by microdilution method
Staphylococcus aureus [5] = test: Antimicrobial activity against Methicillin-resistant Staphylococcus aureus assessed as bacterial growth inhibition
Staphylococcus aureus [6] = test: Antimicrobial activity against Methicillin-resistant Staphylococcus aureus ATCC 33599 assessed as bacterial growth inhibition
Staphylococcus aureus [7] = test: Antimicrobial activity against vancomycin intermediate-resistant Staphylococcus aureus assessed as bacterial growth inhibition incubated for 24 hrs by microdilution method
Staphylococcus aureus [8] = test: Antimicrobial activity against Methicillin sensitive Staphylococcus aureus assessed as bacterial growth inhibition incubated for 18 hrs
Staphylococcus aureus [9] = test: Antimicrobial activity against Methicillin-resistant Staphylococcus aureus CCARM 3506 assessed as bacterial growth inhibition incubated for 24 hrs by ELISA assay
Staphylococcus aureus [10] = test: Antimicrobial activity against Staphylococcus aureus MTCC 442 assessed as bacterial growth inhibition incubated for 24 to 48 hrs; conditions: time 24-48 hrs
Staphylococcus aureus [11] = test: Antimicrobial activity against Staphylococcus aureus MTCC 96 assessed as bacterial growth inhibition incubated for 24 to 48 hrs; conditions: time 24-48 hrs
Staphylococcus aureus [12] = test: Antimicrobial activity against Methicillin-resistant Staphylococcus aureus ATCC 43300 assessed as bacterial growth inhibition by microdilution method
Staphylococcus aureus [13] = test: Antimicrobial activity against Methicillin-resistant Staphylococcus aureus ATCC 43300 assessed as bacterial growth inhibition incubated for 24 hrs by microdilution method; conditions: ATCC43300

NC(=O)c1cnn(-c2ccc([N+](=O)[O-])cc2[N+](=O)[O-])c1NC(=O)c1ccccc1
MIC (Staphylococcus aureus [1]): 75.3 µg/mL (≈ 190 µM)

COc1cc(/C=C/c2cc(/C=C/c3ccc(OCC(=O)N[C@@H](C)c4ccccc4)c(OC)c3)[nH]n2)ccc1OCC(=O)N[C@@H](C)c1ccccc1
MIC (Staphylococcus aureus [2]): 10 µM (≈ 6.87 µg/mL)

C/C(=N/NC1=NCCN1)c1cnn(-c2ccc(C#CC(C)(C)C)cc2)c1C
Activity (Staphylococcus aureus [3]): 62%

COc1cc(/C=C/c2cc(/C=C/c3ccc(OCC(=O)NC45CC6CC(CC4C6)C5)c(OC)c3)[nH]n2)ccc1OCC(=O)NC12CC3CC(CC1C3)C2
MIC (Staphylococcus aureus [2]): 10 µM (≈ 7.19 µg/mL)

Clc1ccc(-c2nn(-c3ccccc3)cc2-c2nc3ccccn3c2Cc2ccccc2)cc1
MIC (Pseudomonas aeruginosa): < 1 µg/mL | MIC (Escherichia coli): < 1 µg/mL | MIC (Klebsiella pneumoniae): < 1 µg/mL | MIC [4]: < 1 µg/mL

Oc1ccccc1-c1nn(-c2ccccc2)cc1-c1nc2ccccn2c1Cc1ccccc1
MIC (Pseudomonas aeruginosa): < 1 µg/mL | MIC (Escherichia coli): < 1 µg/mL | MIC (Klebsiella pneumoniae): < 1 µg/mL | MIC [4]: < 1 µg/mL

CCn1ncc2c3c(C#N)c4ccc(Br)cc4nc3ccc21
MIC (Staphylococcus aureus [5]): 2 µg/mL (≈ 5.69 µM)

O=C(O)c1ccc(-n2cc(/C=N/c3ccc(C(F)(F)F)cc3)c(-c3ccc4ccccc4c3)n2)cc1
MBC (Staphylococcus aureus [6]): 25 µg/mL (≈ 51.5 µM) | MIC (Staphylococcus aureus [6]): 0.78 µg/mL (≈ 1.61 µM)

CC(C)Cn1ncc2c3c(C#N)c4ccc(Br)cc4nc3ccc21
MIC (Staphylococcus aureus [5]): 6 µg/mL (≈ 15.8 µM)

O=C1CN(c2nnc(-c3cccc([N+](=O)[O-])c3)s2)C(c2cn(-c3ccccc3)nc2-c2cccc([N+](=O)[O-])c2)S1 (configuration not stated)
MBC (Staphylococcus aureus [5]): 312 µg/mL (≈ 547 µM)

CC[C@H]1OC(=O)[C@H](C)[C@@H](O[C@H]2C[C@@](C)(OC)[C@@H](O)[C@H](C)O2)[C@H](C)[C@@H](O[C@@H]2O[C@H](C)C[C@H](N(C)C)[C@H]2O)[C@](C)(O)C[C@@H](C)C(=O)[C@H](C)[C@@H](O)[C@]1(C)O [ERYTHROMYCIN]
MIC (Staphylococcus aureus [1]): 32 µg/mL (≈ 43.6 µM)

NC(=O)c1cnn(-c2ccc([N+](=O)[O-])cc2[N+](=O)[O-])c1NC(=O)c1ccc(Cl)cc1
MIC (Staphylococcus aureus [1]): 39 µg/mL (≈ 90.5 µM)

Cn1ncc2c3c(C#N)c4ccc(Br)cc4nc3ccc21
MIC (Staphylococcus aureus [5]): 2 µg/mL (≈ 5.93 µM)

O=C(O)c1ccc(-n2cc(/C=N/c3cccc(Cl)c3F)c(-c3ccc4ccccc4c3)n2)cc1
MBC (Staphylococcus aureus [6]): 12.5 µg/mL (≈ 26.6 µM) | MIC (Staphylococcus aureus [6]): 0.78 µg/mL (≈ 1.66 µM)

O=C(c1cc(C(F)(F)F)n[nH]1)c1cc(Br)ccc1O
MIC (Staphylococcus aureus [7]): < 0.125 µg/mL

COc1ccc(C(=O)Nc2c(C(N)=O)cnn2-c2ccc([N+](=O)[O-])cc2[N+](=O)[O-])cc1
MIC (Staphylococcus aureus [1]): 10 µg/mL (≈ 23.5 µM)

CC(=O)c1c(N2Cc3nn(C)c(N)c3C2)c(F)cc2c(=O)c(C(=O)O)cn(C3CC3)c12
MIC (Staphylococcus aureus [8]): 0.125 µg/mL (≈ 0.294 µM)

Cc1nn(-c2ccc(Cl)cc2Cl)c(Oc2ccc3ccccc3c2)c1C1N=C(N)NC(NCCc2ccccc2)=N1 (configuration not stated)
MIC (Staphylococcus aureus [9]): 0.5 µg/mL (≈ 0.855 µM)

NC(=O)c1cnn(-c2ccc([N+](=O)[O-])cc2[N+](=O)[O-])c1NC(=O)c1ccc([N+](=O)[O-])cc1
MIC (Staphylococcus aureus [1]): 4 µg/mL (≈ 9.06 µM)

O=C(/C=C/c1cccc(F)c1)N1N=C(c2ccncc2)OC1c1cn(-c2ccccc2)nc1-c1ccc(F)cc1 (configuration not stated)
MIC (Staphylococcus aureus [10]): 25 µg/mL (≈ 46.9 µM) | MIC (Staphylococcus aureus [11]): 25 µg/mL (≈ 46.9 µM)

CC1=C(C(=O)O)N2C(=O)[C@@H](NC(=O)[C@H](N)c3ccccc3)[C@H]2SC1 [CEPHALEXIN ANHYDROUS]
MIC (Staphylococcus aureus [1]): 72 µg/mL (≈ 207 µM)

O=C1S/C(=C\c2cn(-c3ccccc3)nc2-c2ccc([N+](=O)[O-])cc2)C(=O)N1CCCn1ccc2ccccc21
MIC (Staphylococcus aureus [12]): 12.5 µg/mL

Cc1nn(-c2ccc(Br)cc2)c2c1C(C(=O)O)CC=C(C(=O)O)N2 (configuration not stated)
MIC (Staphylococcus aureus [13]): > 500 µg/mL

Clc1ccccc1-c1nn(-c2ccccc2)cc1-c1nc2ccccn2c1Cc1ccccc1
MIC (Pseudomonas aeruginosa): < 1 µg/mL | MIC (Escherichia coli): < 1 µg/mL | MIC (Klebsiella pneumoniae): < 1 µg/mL | MIC [4]: < 1 µg/mL

Cc1nn(-c2ccc(Cl)cc2Cl)c(Oc2cccc(Cl)c2)c1C1N=C(N)NC(NCCc2ccccc2)=N1 (configuration not stated)
MIC (Staphylococcus aureus [9]): 0.5 µg/mL (≈ 0.879 µM)

O=C1S/C(=C\c2cn(-c3ccccc3)nc2-c2ccc(Cl)cc2Cl)C(=O)N1CCCn1ccc2ccccc21
MIC (Staphylococcus aureus [12]): 6.25 µg/mL

O=C(c1cc(C(F)(F)F)n[nH]1)c1cc(Cl)cc(Cl)c1O
MIC (Staphylococcus aureus [7]): < 0.125 µg/mL

Cc1ccc(O)c(C(=O)c2cc(C(F)(F)F)n[nH]2)c1
MIC (Staphylococcus aureus [7]): < 0.125 µg/mL

O=C1S/C(=C\c2cn(-c3ccccc3)nc2-c2ccc(Cl)cc2)C(=O)N1CCCn1ccc2ccccc21
MIC (Staphylococcus aureus [12]): > 50 µg/mL

O=C(c1cc(C(F)(F)F)n[nH]1)c1ccc(Cl)cc1O
MIC (Staphylococcus aureus [7]): < 0.125 µg/mL

Cc1nn(-c2ccccc2Cl)c2c1C(C(=O)O)CC=C(C(=O)O)N2 (configuration not stated)
MIC (Staphylococcus aureus [13]): > 500 µg/mL

Cc1ccc(Oc2c(C3N=C(N)NC(NCCc4ccccc4)=N3)c(C)nn2-c2ccc(Cl)cc2Cl)cc1 (configuration not stated)
MIC (Staphylococcus aureus [9]): 0.5 µg/mL (≈ 0.912 µM)

COc1c(N2CCNC(C)C2)c(F)cc2c(=O)c(C(=O)O)cn(C3CC3)c12 (configuration not stated) [GATIFLOXACIN]
MIC (Staphylococcus aureus [8]): 0.06 µg/mL (≈ 0.16 µM)

CC1(C)S[C@@H]2[C@H](NC(=O)Cc3ccccc3)C(=O)N2[C@H]1C(=O)O [PENICILLIN G]
MIC (Staphylococcus aureus [5]): 0.06 µg/mL (≈ 0.179 µM)

Cc1nn(-c2ccc(Cl)cc2Cl)c(Oc2cccc(Br)c2)c1C1N=C(N)NC(NCCc2ccccc2)=N1 (configuration not stated)
MIC (Staphylococcus aureus [9]): 0.5 µg/mL (≈ 0.815 µM)
